In patent US9650395B2, “Antibacterial compounds and methods for use” (PTC Therapeutics, Inc., priority 2011, dated 2017):
Values after ≈ are worked out from the molar mass of the structure shown. Like-named read-outs stand apart in the source and are kept apart here.

Columns and labels:
[1] = tested on: Moraxella catarrhalis (M. catarrhalis) 25238; experiment: Antibacterial activity, MIC, M. catarrhalis 25238; type: cell-based; details: Moraxella catarrhalis, M. catarrhalis 25238; read-out: MIC 25238
[2] = tested on: E. coli ELZ4000 (MDR clinical isolate); experiment: Antibacterial activity, MIC, MDR E. coli ELZ4000; type: cell-based, Escherichia coli; details: Escherichia coli; E. coli ELZ4000, MDR clinical isolate; read-out: MIC ELZ4000
[3] = tested on: Haemophilus influenzae (H. influenzae) 49247; experiment: Antibacterial activity, MIC, H. influenzae 49247; type: cell-based; details: Haemophilus influenzae; H. influenzae 49247; read-out: MIC 49247
How it was run: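 Antibacterial activity against the Gram-negative organism Haemophilus influenzae strain 49247 was measured by microbroth dilution. The minimum inhibitory concentration (MIC) was taken as the lowest drug concentration that stopped bacterial growth from being visible to the naked eye under the test conditions.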

[4] = tested on: Gram-positive Staphylococcus aureus (S. aureus) 29213; experiment: Antibacterial activity, microbroth dilution MIC, S. aureus 29213; type: cell-based; details: Staphylococcus aureus; S. aureus 29213, microbroth dilution; read-out: MIC, 29213
[5] = tested on: super sensitive Gram-negative Escherichia coli (E. coli) BAS849; experiment: Antibacterial activity, microbroth dilution MIC, E. coli BAS849; type: cell-based; details: Escherichia coli, read-out: MIC, BAS849
[6] = tested on: E. coli ELZ4251 (MDR clinical isolate); experiment: Antibacterial activity, MIC, MDR E. coli ELZ4251; type: cell-based, Escherichia coli; details: Escherichia coli, E. coli ELZ4251, MDR clinical isolate; read-out: MIC ELZ4251
[7] = tested on: control Gram-negative E. coli 25922 strain; experiment: Antibacterial activity, microbroth dilution MIC, E. coli 25922; type: cell-based, Escherichia coli; details: Escherichia coli; E. coli 25922, microbroth dilution; read-out: MIC, 25922
[8] = tested on: quinolone resistant E. coli LZ3111; experiment: Antibacterial activity, MIC, quinolone resistant E. coli LZ3111; type: cell-based, Escherichia coli; details: Escherichia coli, read-out: MIC, LZ3111
Description: (§1) The antibacterial activity from a microbroth dilution method may be presented as the minimum inhibitory concentration (MIC in […]). The MIC value is the lowest concentration of a drug which prevents macroscopically visible bacterial growth under test conditions.
Mutations in these regions are known to confer a high level resistance to the quinolone class of antibiotics.

[9] = tested on: Neisseria meningitidis (N. meningitidis) 13090; experiment: Antibacterial activity, MIC, N. meningitidis 13090; type: cell-based; details: Neisseria meningitidis; N. meningitidis 13090; read-out: MIC 13090
[10] = tested on: Pseudomonas aeruginosa (P. aeruginosa) 27853; experiment: Antibacterial activity, MIC, P. aeruginosa 27853; type: cell-based; details: Pseudomonas aeruginosa, P. aeruginosa 27853; read-out: MIC 27853
Description: as §1
Antibacterial activity of test compounds against the Gram-negative bacterium Pseudomonas aeruginosa (P. aeruginosa) 27853 is shown in Table 5.

[11] = E. coli BAS849, microbroth dilution

SMILES	MIC [1] [µg/mL]	MIC [2] [µg/mL]	MIC [3] [µg/mL]	MIC [4] [µg/mL]	MIC [5, 11] [µg/mL]	MIC [6] [µg/mL]	MIC [7] [µg/mL]	MIC [8] [µg/mL]	MIC [9] [µg/mL]	MIC [10] [µg/mL]	MIC [5] [µg/mL]
CCc1cc(C(=O)O)c(=O)[nH]c1-c1ccc(N2CCC(O)C2)cc1 (stereo not shown) [Cpd 123, 5-ethyl-6-[4-(3-hydroxypyrrolidin-1-yl)phenyl]-2-oxo-1,2-dihydropyridine-3-carboxylic acid]	< 1	12.5 to 150 (≈ 38.1 to 457 µM)	< 1	3.5 to 12.5 (≈ 10.7 to 38.1 µM)	< 1	12.5 to 150 (≈ 38.1 to 457 µM)	< 1	12.5 to 150 (≈ 38.1 to 457 µM)	< 1	3.5 to 12.5 (≈ 10.7 to 38.1 µM)	–
CCc1cc(C(=O)O)c(=O)[nH]c1-c1ccc(N2CC[C@@H](F)C2)cc1 [Cpd 154, 5-ethyl-6-{4-[(3R)-3-fluoropyrrolidin-1-yl]phenyl}-2-oxo-1,2-dihydropyridine-3-carboxylic acid]	< 1	12.5 to 150 (≈ 37.8 to 454 µM)	< 1	3.5 to 12.5 (≈ 10.6 to 37.8 µM)	< 1	12.5 to 150 (≈ 37.8 to 454 µM)	1 to 3.5 (≈ 3.03 to 10.6 µM)	12.5 to 150 (≈ 37.8 to 454 µM)	< 1	12.5 to 150 (≈ 37.8 to 454 µM)	–
CCc1cc(C(=O)O)c(=O)[nH]c1-c1ccc(Nc2ccccc2)cc1 [Cpd 155, 5-ethyl-2-oxo-6-[4-(phenylamino)phenyl]-1,2-dihydropyridine-3-carboxylic acid]	< 1	12.5 to 150 (≈ 37.4 to 449 µM)	< 1	3.5 to 12.5 (≈ 10.5 to 37.4 µM)	< 1	12.5 to 150 (≈ 37.4 to 449 µM)	1 to 3.5 (≈ 2.99 to 10.5 µM)	12.5 to 150 (≈ 37.4 to 449 µM)	< 1	12.5 to 150 (≈ 37.4 to 449 µM)	–
CCCc1cc(C(=O)O)c(=O)[nH]c1-c1ccc(N(C)C)cc1 [Cpd 8, 6-[4-(dimethylamino)phenyl]-2-oxo-5-propyl-1,2-dihydropyridine-3-carboxylic acid]	< 1	12.5 to 150 (≈ 41.6 to 499 µM)	< 1	12.5 to 150 (≈ 41.6 to 499 µM)	< 1	12.5 to 150 (≈ 41.6 to 499 µM)	3.5 to 12.5 (≈ 11.7 to 41.6 µM)	12.5 to 150 (≈ 41.6 to 499 µM)	< 1	12.5 to 150 (≈ 41.6 to 499 µM)	–
CCc1cc(C(=O)O)c(=O)[nH]c1-c1ccc(N2CCC[C@@H]2C(F)(F)F)cc1 [Cpd 141, 5-ethyl-2-oxo-6-{4-[(2R)-2-(trifluoromethyl)pyrrolidin-1-yl]phenyl}-1,2-dihydropyridine-3-carboxylic acid]	< 1	12.5 to 150 (≈ 32.9 to 394 µM)	< 1	3.5 to 12.5 (≈ 9.2 to 32.9 µM)	< 1	12.5 to 150 (≈ 32.9 to 394 µM)	12.5 to 150 (≈ 32.9 to 394 µM)	12.5 to 150 (≈ 32.9 to 394 µM)	< 1	12.5 to 150 (≈ 32.9 to 394 µM)	–
CCc1cc(C(=O)O)c(=O)[nH]c1-c1ccc(N2CCC(N3CCOCC3)C2)cc1.O=C(O)C(F)(F)F (stereo not shown) [Cpd 140, 5-ethyl-6-{4-[3-(morpholin-4-yl)pyrrolidin-1-yl]phenyl}-2-oxo-1,2-dihydropyridine-3-carboxylic acid trifluoroacetate]	< 1	12.5 to 150	< 1	12.5 to 150	–	12.5 to 150	3.5 to 12.5	12.5 to 150	< 1	12.5 to 150	< 1
CC(C)c1c(-c2ccc(N(C)C)cc2)[nH]c(=O)c(C(=O)O)c1O [Cpd 96, 6-[4-(dimethylamino)phenyl]-4-hydroxy-2-oxo-5-(propan-2-yl)-1,2-dihydropyridine-3-carboxylic acid]	< 1	12.5 to 150 (≈ 39.5 to 474 µM)	< 1	3.5 to 12.5 (≈ 11.1 to 39.5 µM)	< 1	12.5 to 150 (≈ 39.5 to 474 µM)	3.5 to 12.5 (≈ 11.1 to 39.5 µM)	12.5 to 150 (≈ 39.5 to 474 µM)	< 1	12.5 to 150 (≈ 39.5 to 474 µM)	–
CCc1cc(C(=O)O)c(=O)[nH]c1-c1ccc(N2CCCCC2)cc1 [Cpd 108, 5-ethyl-2-oxo-6-[4-(piperidin-1-yl)phenyl]-1,2-dihydropyridine-3-carboxylic acid]	< 1	12.5 to 150 (≈ 38.3 to 460 µM)	< 1	12.5 to 150 (≈ 38.3 to 460 µM)	< 1	12.5 to 150 (≈ 38.3 to 460 µM)	12.5 to 150 (≈ 38.3 to 460 µM)	12.5 to 150 (≈ 38.3 to 460 µM)	< 1	12.5 to 150 (≈ 38.3 to 460 µM)	–
CCc1cc(C(=O)O)c(=O)[nH]c1-c1ccc(N2CCC[C@H]2C(=O)O)cc1 [Cpd 157, 6-{4-[(2S)-2-carboxypyrrolidin-1-yl]phenyl}-5-ethyl-2-oxo-1,2-dihydropyridine-3-carboxylic acid]	< 1	12.5 to 150 (≈ 35.1 to 421 µM)	< 1	12.5 to 150 (≈ 35.1 to 421 µM)	< 1	12.5 to 150 (≈ 35.1 to 421 µM)	3.5 to 12.5 (≈ 9.82 to 35.1 µM)	12.5 to 150 (≈ 35.1 to 421 µM)	< 1	12.5 to 150 (≈ 35.1 to 421 µM)	–
CN(C)c1ccc(-c2[nH]c(=O)c(C(=O)O)cc2C2CC2)cc1 [Cpd 12, 5-cyclopropyl-6-[4-(dimethylamino)phenyl]-2-oxo-1,2-dihydropyridine-3-carboxylic acid]	< 1	12.5 to 150 (≈ 41.9 to 503 µM)	< 1	12.5 to 150 (≈ 41.9 to 503 µM)	< 1	12.5 to 150 (≈ 41.9 to 503 µM)	3.5 to 12.5 (≈ 11.7 to 41.9 µM)	12.5 to 150 (≈ 41.9 to 503 µM)	< 1	12.5 to 150 (≈ 41.9 to 503 µM)	–
CCc1c(-c2ccc(N3CC=CC3)cc2)[nH]c(=O)c(C(=O)O)c1O [Cpd 302, 6-[4-(2,5-dihydro-1H-pyrrol-1-yl)phenyl]-5-ethyl-4-hydroxy-2-oxo-1,2-dihydropyridine-3-carboxylic acid]	< 1	12.5 to 150 (≈ 38.3 to 460 µM)	< 1	< 1	< 1	12.5 to 150 (≈ 38.3 to 460 µM)	1 to 3.5 (≈ 3.06 to 10.7 µM)	12.5 to 150 (≈ 38.3 to 460 µM)	< 1	3.5 to 12.5 (≈ 10.7 to 38.3 µM)	–
CCc1cc(C(=O)O)c(=O)[nH]c1-c1ccc(N2CCC[C@@H]2COC)cc1 [Cpd 147, 5-ethyl-6-{4-[(2R)-2-(methoxymethyl)pyrrolidin-1-yl]phenyl}-2-oxo-1,2-dihydropyridine-3-carboxylic acid]	< 1	12.5 to 150 (≈ 35.1 to 421 µM)	< 1	3.5 to 12.5 (≈ 9.82 to 35.1 µM)	< 1	12.5 to 150 (≈ 35.1 to 421 µM)	3.5 to 12.5 (≈ 9.82 to 35.1 µM)	12.5 to 150 (≈ 35.1 to 421 µM)	< 1	12.5 to 150 (≈ 35.1 to 421 µM)	–
CCc1cc(C(=O)O)c(=O)[nH]c1-c1ccc(N2CCC2)cc1 [Cpd 111, 6-[4-(azetidin-1-yl)phenyl]-5-ethyl-2-oxo-1,2-dihydropyridine-3-carboxylic acid]	< 1	12.5 to 150 (≈ 41.9 to 503 µM)	< 1	12.5 to 150 (≈ 41.9 to 503 µM)	< 1	12.5 to 150 (≈ 41.9 to 503 µM)	1 to 3.5 (≈ 3.35 to 11.7 µM)	12.5 to 150 (≈ 41.9 to 503 µM)	< 1	12.5 to 150 (≈ 41.9 to 503 µM)	–
